Experimental data as given in ChEMBL document CHEMBL1142999, “Discovery of potent, selective, orally active, nonpeptide inhibitors of human mast cell chymase” (J Med Chem, 2007).
The source made the active and inactive calls. No cut-off for these calls is given here.

What was measured:
Chymase (Homo sapiens) = molecular target: T1, Chymase (Homo sapiens) (UniProt P23946); assay: Inhibition of human skin chymase at 10 uM
T1 sequence (whole entry): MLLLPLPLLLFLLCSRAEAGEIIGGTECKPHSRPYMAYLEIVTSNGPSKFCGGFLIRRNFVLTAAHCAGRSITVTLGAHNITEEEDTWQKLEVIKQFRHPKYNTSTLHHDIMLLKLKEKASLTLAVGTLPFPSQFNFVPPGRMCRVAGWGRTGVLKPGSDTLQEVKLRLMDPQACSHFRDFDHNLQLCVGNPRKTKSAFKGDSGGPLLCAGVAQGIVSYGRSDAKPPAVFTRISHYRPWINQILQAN

Syrian golden hamster [1] = assay: Antiinflammatory activity against carrageenan-induced paw inflammation in golden Syrian hamster at 10 mg/kg, im; assay type: functional, organism-based; set-up: dose 10 mg/kg; conditions: Mesocricetus auratus
[2] = molecular target: T2, Coagulation factor VII (Homo sapiens) (UniProt P08709); assay: Inhibition of human factor VIIa at 100 uM
T2 sequence (whole entry): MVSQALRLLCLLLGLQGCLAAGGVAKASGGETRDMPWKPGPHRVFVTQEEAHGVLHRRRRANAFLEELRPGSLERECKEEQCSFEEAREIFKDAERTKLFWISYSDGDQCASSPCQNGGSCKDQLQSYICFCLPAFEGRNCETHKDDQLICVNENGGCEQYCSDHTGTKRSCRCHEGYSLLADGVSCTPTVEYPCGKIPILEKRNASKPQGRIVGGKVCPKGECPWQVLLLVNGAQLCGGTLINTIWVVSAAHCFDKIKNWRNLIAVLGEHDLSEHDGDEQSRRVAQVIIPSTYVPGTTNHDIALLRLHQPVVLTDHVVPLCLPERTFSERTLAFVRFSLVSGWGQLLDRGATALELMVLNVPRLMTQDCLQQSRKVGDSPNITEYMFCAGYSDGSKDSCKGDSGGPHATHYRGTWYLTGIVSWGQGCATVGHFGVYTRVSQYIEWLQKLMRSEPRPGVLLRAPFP

Cathepsin G = molecular target: T3, Cathepsin G (Homo sapiens, UniProt P08311); assay: Inhibition of human neutrophil Cat G
T3 sequence (P08311 whole entry): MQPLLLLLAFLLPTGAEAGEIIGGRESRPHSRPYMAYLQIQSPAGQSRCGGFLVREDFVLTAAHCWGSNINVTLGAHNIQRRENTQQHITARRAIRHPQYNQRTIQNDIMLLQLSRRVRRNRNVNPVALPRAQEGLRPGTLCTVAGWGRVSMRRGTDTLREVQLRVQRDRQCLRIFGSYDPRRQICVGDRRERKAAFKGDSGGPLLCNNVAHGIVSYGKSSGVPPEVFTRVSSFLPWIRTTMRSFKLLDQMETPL

[3] = molecular target: T4, Neutrophil elastase (Homo sapiens) (UniProt P08246); assay: Inhibition of human leukocyte elastase at 100 uM
T4 sequence (whole entry): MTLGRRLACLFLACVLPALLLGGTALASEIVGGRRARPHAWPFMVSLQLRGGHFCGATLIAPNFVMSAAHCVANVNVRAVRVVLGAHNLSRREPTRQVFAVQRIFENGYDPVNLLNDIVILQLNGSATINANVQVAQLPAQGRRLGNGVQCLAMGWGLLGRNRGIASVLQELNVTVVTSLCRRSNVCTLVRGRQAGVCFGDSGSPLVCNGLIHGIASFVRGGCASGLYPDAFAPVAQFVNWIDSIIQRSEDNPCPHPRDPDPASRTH

Trypsin = Trypsin (Homo sapiens, UniProt P07477+P07478+P35030); assay: Inhibition of human trypsin; assay type: protein assay
[4] = Oral bioavailability in rat; assay type: ADME, organism-based; conditions: in vivo
Homo sapiens [5] = species on record: Homo sapiens; assay: Inhibition of human beta-tryptase at 100 uM
[6] = molecular target: Coagulation factor X (Homo sapiens) (UniProt P00742); assay: Inhibition of human factor Xa at 100 uM
Homo sapiens [7] = species on record: Homo sapiens; assay: Inhibition of human alpha-thrombin at 100 uM
[8] = Half life in orally dosed rat; assay type: ADME, organism-based; conditions: in vivo, po
Homo sapiens [9] = species on record: Homo sapiens; assay: Inhibition of human chymotrypsin at 100 uM
[10] = molecular target: T5, Cathepsin G (Homo sapiens) (UniProt P08311); assay: Inhibition of human neutrophil Cat G at 100 uM
T5 sequence (whole entry): T3 sequence (P08311 whole entry)

Syrian golden hamster [11] = assay: Antiinflammatory activity against carrageenan-induced paw inflammation in golden Syrian hamster at 30 mg/kg, po; assay type: functional; conditions: Mesocricetus auratus
[12] = Cmax in rat; assay type: ADME, organism-based; conditions: in vivo

Coagulation factor X (Homo sapiens), sequence (P00742 41-179 limits assumed): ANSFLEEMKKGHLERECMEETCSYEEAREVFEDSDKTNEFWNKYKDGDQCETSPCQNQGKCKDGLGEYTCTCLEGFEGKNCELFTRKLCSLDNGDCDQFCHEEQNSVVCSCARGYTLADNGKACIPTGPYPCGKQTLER
Coagulation factor X (Homo sapiens), sequence (P00742 235-488 limits assumed): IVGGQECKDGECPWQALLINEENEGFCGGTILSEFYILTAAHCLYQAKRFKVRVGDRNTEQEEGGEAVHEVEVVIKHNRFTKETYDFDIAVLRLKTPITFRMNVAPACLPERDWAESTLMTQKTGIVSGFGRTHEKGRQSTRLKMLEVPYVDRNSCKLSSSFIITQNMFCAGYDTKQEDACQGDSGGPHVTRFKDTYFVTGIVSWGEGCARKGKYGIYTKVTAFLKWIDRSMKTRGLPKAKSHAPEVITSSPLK

O=C(Nc1ccc2ccccc2c1)C(n1nnc2ccccc21)P(=O)(O)O (configuration not stated)
inhibition (Chymase (Homo sapiens)): < 50%

C[C@@H]1C[C@H]2[C@@H]3CCC4=CC(=O)C=C[C@]4(C)[C@@]3(F)[C@@H](O)C[C@]2(C)[C@@]1(O)C(=O)CO
Activity (Syrian golden hamster [1]): Active

O=C(Nc1ccc2ccccc2c1)C(c1csc2ccc(Cl)cc12)P(=O)(O)O (configuration not stated)
inhibition [2]: < 50% | Ki (Cathepsin G): 9.5 µM | inhibition [3]: < 50% | IC50 (Trypsin): 12 µM | bioavailability [4]: 3% | inhibition (Homo sapiens [5]): < 50% | inhibition [6]: < 50% | inhibition (Homo sapiens [7]): < 50% | half-life [8]: 1.8 h | inhibition (Homo sapiens [9]): < 50%

O=C(Nc1ccc2ccccc2c1)C(c1cccc2ccccc12)P(=O)(O)O (configuration not stated)
inhibition [10]: 0%

CP(=O)(O)C(C(=O)N/C=C/c1cc(F)cc(Cl)c1)c1csc2ccc(Cl)cc12 (configuration not stated)
bioavailability [4]: 39% | inhibition in vivo at 30 mg/kg (Syrian golden hamster [11]): 50% | Cmax [12]: 6 µM | half-life [8]: 4.5 h
